Source: ChEMBL document CHEMBL3621049, “Imidazole derivatives show anticancer potential by inducing apoptosis and cellular senescence” (2014)
Calls of active or inactive are those of the source.

What was measured:
Format in all cases: functional, cell-based
[1] = tested on: HT-29; assay: Growth inhibition of human HT-29 cells at 10 uM by sulforhodamine B assay
[2] = tested on: SK-MEL-28; assay: Growth inhibition of human SK-MEL-28 cells at 10 uM by sulforhodamine B assay
[3] = tested on: Hs-578T; assay: Growth inhibition of human Hs 578T cells at 10 uM by sulforhodamine B assay
[4] = tested on: MCF7; assay: Growth inhibition of human MCF7 cells at 10 uM by sulforhodamine B assay
[5] = tested on: OVCAR-4; assay: Growth inhibition of human OVCAR4 cells at 10 uM by sulforhodamine B assay
[6] = tested on: SNB-75; assay: Growth inhibition of human SNB75 cells at 10 uM by sulforhodamine B assay
[7] = tested on: COLO 205; assay: Growth inhibition of human COLO205 cells at 10 uM by sulforhodamine B assay
[8] = tested on: SR; assay: Growth inhibition of human SR cells at 10 uM by sulforhodamine B assay
[9] = tested on: UO-31; assay: Growth inhibition of human UO31 cells at 10 uM by sulforhodamine B assay
[10] = tested on: MDA-MB-468; assay: Growth inhibition of human MDA-MB-468 cells at 10 uM by sulforhodamine B assay
[11] = tested on: OVCAR-8; assay: Growth inhibition of human OVCAR8 cells at 10 uM by sulforhodamine B assay
[12] = tested on: A498; assay: Growth inhibition of human A498 cells at 10 uM by sulforhodamine B assay
[13] = tested on: UACC-62; assay: Growth inhibition of human UACC62 cells at 10 uM by sulforhodamine B assay
[14] = tested on: KM12; assay: Growth inhibition of human KM12 cells at 10 uM by sulforhodamine B assay
[15] = tested on: OVCAR-3; assay: Growth inhibition of human OVCAR3 cells at 10 uM by sulforhodamine B assay
[16] = tested on: MDA-MB-231; assay: Growth inhibition of human MDA-MB-231 cells at 10 uM by sulforhodamine B assay
[17] = tested on: HCT-15; assay: Growth inhibition of human HCT15 cells at 10 uM by sulforhodamine B assay
[18] = tested on: UACC-257; assay: Growth inhibition of human UACC257 cells at 10 uM by sulforhodamine B assay
[19] = tested on: A549; assay: Growth inhibition of human A549/ATCC cells at 10 uM by sulforhodamine B assay
[20] = tested on: SF-539; assay: Growth inhibition of human SF539 cells at 10 uM by sulforhodamine B assay
[21] = tested on: U-251; assay: Growth inhibition of human U251 cells at 10 uM by sulforhodamine B assay
[22] = tested on: CCRF-CEM; assay: Growth inhibition of human CCRF-CEM cells at 10 uM by sulforhodamine B assay
[23] = tested on: M14; assay: Growth inhibition of human M14 cells at 10 uM by sulforhodamine B assay
[24] = tested on: SF-295; assay: Growth inhibition of human SF295 cells at 10 uM by sulforhodamine B assay
[25] = tested on: HCT-116; assay: Growth inhibition of human HCT116 cells at 10 uM by sulforhodamine B assay
[26] = tested on: LOX IMVI; assay: Growth inhibition of human LOXIMVI cells at 10 uM by sulforhodamine B assay
[27] = tested on: HL-60(TB); assay: Growth inhibition of human HL-60(TB) cells at 10 uM by sulforhodamine B assay
[28] = tested on: SK-OV-3; assay: Growth inhibition of human SKOV3 cells at 10 uM by sulforhodamine B assay
[29] = tested on: 786-0; assay: Growth inhibition of human 786-0 cells at 10 uM by sulforhodamine B assay
[30] = tested on: ACHN; assay: Growth inhibition of human ACHN cells at 10 uM by sulforhodamine B assay
[31] = tested on: SNB-19; assay: Growth inhibition of human SNB19 cells at 10 uM by sulforhodamine B assay
[32] = tested on: SF-268; assay: Growth inhibition of human SF268 cells at 10 uM by sulforhodamine B assay
[33] = tested on: SK-MEL-2; assay: Growth inhibition of human SK-MEL-2 cells at 10 uM by sulforhodamine B assay
[34] = tested on: NCI-H522; assay: Growth inhibition of human NCI-H522 cells at 10 uM by sulforhodamine B assay
[35] = tested on: TK-10; assay: Growth inhibition of human TK10 cells at 10 uM by sulforhodamine B assay
[36] = tested on: RXF 393; assay: Growth inhibition of human RXF393 cells at 10 uM by sulforhodamine B assay
[37] = tested on: NCI-H460; assay: Growth inhibition of human NCI-H460 cells at 10 uM by sulforhodamine B assay
[38] = tested on: HOP-62; assay: Growth inhibition of human HOP62 cells at 10 uM by sulforhodamine B assay
[39] = tested on: SW-620; assay: Growth inhibition of human SW620 cells at 10 uM by sulforhodamine B assay
[40] = tested on: PC-3; assay: Growth inhibition of human PC3 cells at 10 uM by sulforhodamine B assay
[41] = tested on: OVCAR-5; assay: Growth inhibition of human OVCAR5 cells at 10 uM by sulforhodamine B assay
[42] = tested on: Malme-3M; assay: Growth inhibition of human MALME-3M cells at 10 uM by sulforhodamine B assay
[43] = tested on: SK-MEL-5; assay: Growth inhibition of human SK-MEL-5 cells at 10 uM by sulforhodamine B assay
[44] = tested on: T47D; assay: Growth inhibition of human T47D cells at 10 uM by sulforhodamine B assay
[45] = tested on: HOP-92; assay: Growth inhibition of human HOP92 cells at 10 uM by sulforhodamine B assay
[46] = tested on: K562; assay: Growth inhibition of human K562 cells at 10 uM by sulforhodamine B assay
[47] = tested on: NCI-H23; assay: Growth inhibition of human NCI-H23 cells at 10 uM by sulforhodamine B assay
[48] = tested on: IGROV-1; assay: Growth inhibition of human IGROV1 cells at 10 uM by sulforhodamine B assay
[49] = tested on: NCI/ADR-RES; assay: Growth inhibition of human NCI/ADR-RES cells at 10 uM by sulforhodamine B assay
[50] = tested on: NCI-H226; assay: Growth inhibition of human NCI-H226 cells at 10 uM by sulforhodamine B assay
[51] = tested on: DU-145; assay: Growth inhibition of human DU145 cells at 10 uM by sulforhodamine B assay
[52] = tested on: NCI-H322M; assay: Growth inhibition of human NCI-H322M cells at 10 uM by sulforhodamine B assay
[53] = tested on: HCC 2998; assay: Growth inhibition of human HCC2998 cells at 10 uM by sulforhodamine B assay
[54] = tested on: BT-549; assay: Growth inhibition of human BT549 cells at 10 uM by sulforhodamine B assay
[55] = tested on: SN12C; assay: Growth inhibition of human SN12C cells at 10 uM by sulforhodamine B assay
[56] = tested on: MDA-MB-435; assay: Growth inhibition of human MDA-MB-435 cells at 10 uM by sulforhodamine B assay
[57] = tested on: MOLT-4; assay: Growth inhibition of human MOLT4 cells at 10 uM by sulforhodamine B assay
[58] = tested on: CAKI-1; assay: Growth inhibition of human Caki1 cells at 10 uM by sulforhodamine B assay
[59] = tested on: RPMI-8226; assay: Growth inhibition of human RPMI8226 cells at 10 uM by sulforhodamine B assay

Measured: growth inhibition (GI)

COc1ccc(-c2nc(-c3ccccc3)c(-c3ccccc3)[nH]2)cc1OC1CCCC1
active: [1] | [2] | [3] | [4] | [5] | [6] | [7] | [8] | [9] | [10] | [11] | [12] | [13] | [14] | [15] | [16] | [17] | [18] | [19] | [20] | [21] | [22] | [23] | [24] | [25] | [26] | [27] | [28] | [29] | [30] | [31] | [32] | [33] | [34] | [35] | [36] | [37] | [38] | [39] | [40] | [41] | [42] | [43] | [44] | [45] | [46] | [47] | [48] | [49] | [50] | [51] | [52] | [53] | [54] | [55] | [56] | [57] | [58] | [59]
